Assay results: patent US20250320213A1, “Nitrogen-Containing Heterocyclic Compounds” (Pfizer Inc., priority 2024, published 2025)
pEC50: −log10 of the molar value.

target: T1, STAT6 (Homo sapiens, UniProt P42226); assay: STAT6 Reporter Luciferase Assay (IL-13 stimulated HaCaT keratinocyte NanoLuc reporter cells); type: cell-based; conditions: IL-13 stimulated HaCaT STAT6 NanoLuc reporter cells; read-out: Reporter EC50
T1 construct: stably transfected HaCaT keratinocyte cell line, which expresses NanoLuc luciferase reporter gene under the transcriptional control of the STAT6 responsive promoter; endogenous in cells; host or cells: HaCaT keratinocyte reporter cell line (stably transfected with a NanoLuc reporter)
T1 sequence (P42226 1-847): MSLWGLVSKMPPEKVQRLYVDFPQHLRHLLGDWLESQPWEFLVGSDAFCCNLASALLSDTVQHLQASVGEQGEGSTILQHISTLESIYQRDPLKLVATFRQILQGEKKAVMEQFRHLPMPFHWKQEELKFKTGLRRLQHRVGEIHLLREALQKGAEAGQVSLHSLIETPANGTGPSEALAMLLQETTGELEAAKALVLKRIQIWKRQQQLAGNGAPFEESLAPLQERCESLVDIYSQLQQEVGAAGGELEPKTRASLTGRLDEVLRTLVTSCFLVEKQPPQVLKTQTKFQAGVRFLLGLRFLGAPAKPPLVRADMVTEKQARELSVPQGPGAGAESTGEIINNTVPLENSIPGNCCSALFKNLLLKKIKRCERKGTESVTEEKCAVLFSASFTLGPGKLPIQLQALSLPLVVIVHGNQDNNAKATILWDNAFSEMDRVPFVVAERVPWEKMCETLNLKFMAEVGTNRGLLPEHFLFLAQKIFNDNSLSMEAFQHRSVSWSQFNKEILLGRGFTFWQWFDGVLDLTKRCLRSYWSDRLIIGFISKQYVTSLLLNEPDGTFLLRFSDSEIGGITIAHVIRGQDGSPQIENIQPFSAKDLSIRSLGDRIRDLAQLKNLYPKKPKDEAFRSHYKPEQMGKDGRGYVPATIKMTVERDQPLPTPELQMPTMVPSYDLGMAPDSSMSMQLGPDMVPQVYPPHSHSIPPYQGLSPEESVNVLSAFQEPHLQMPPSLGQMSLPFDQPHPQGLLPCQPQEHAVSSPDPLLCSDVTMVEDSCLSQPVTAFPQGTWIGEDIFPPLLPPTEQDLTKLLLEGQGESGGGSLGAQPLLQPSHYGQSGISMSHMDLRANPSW
How it was run: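 HaCaT IL-13Ra2-promoter NanoLuc reporter; cpd 2 h 37 °C in DMEM/2% HI FBS; IL-13 0.12 nM final, 4 h; Nano-Glo luminescence.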

First: CCn1nc2c(c1C(=O)NCc1ccc(NC(=O)N(C)C)cc1)CN(c1ccc(C(=O)N(C)C)cn1)[C@H](C)[C@H]2C (stereo in doubt) [Example 317, rel-(6R,7R)-5-(5-(dimethylcarbamoyl)pyridin-2-yl)-N-(4-(3,3-dimethylureido)benzyl)-2-ethyl-6,7-dimethyl-4,5,6,7-tetrahydro-2H-pyrazolo[4,3-c]pyridine-3-carboxamide]
Second: CCN(CC(=O)NC)C(=O)c1ccc(N2CCc3c(c(C(=O)NCc4ccc(NC(=O)N(C)C)cc4)nn3C(C)C)C2)nc1 [Example 213, N-(4-(3,3-dimethylureido)benzyl)-5-(5-(ethyl(2-(methylamino)-2-oxoethyl)carbamoyl)pyridin-2-yl)-1-isopropyl-4,5,6,7-tetrahydro-1H-pyrazolo[4,3-c]pyridine-3-carboxamide]
The pEC50 of the first is 0.31 log units higher: 6.45 for the first, 6.14 for the second. The first is the more potent here.

Compared with `CCO[C@H]1CCN(C(=O)c2ccc(N3CCc4c(c(C(=O)NCc5ccc(NC(=O)N(C)C)cc5)nn4C(C)C)C3)nc2)C1` [Example 201, (S)-N-(4-(3,3-dimethylureido)benzyl)-5-(5-(3-ethoxypyrrolidine-1-carbonyl)pyridin-2-yl)-1-isopropyl-4,5,6,7-tetrahydro-1H-pyrazolo[4,3-c]pyridine-3-carboxamide], `CNC(=O)[C@@H]1CCCN1C(=O)c1ccc(N2CCc3c(c(C(=O)NCc4ccc(NC(=O)N(C)C)cc4)nn3C(C)C)C2)nc1` [Example 222, (S)-N-(4-(3,3-dimethylureido)benzyl)-1-isopropyl-5-(5-(2-(methylcarbamoyl)pyrrolidine-1-carbonyl)pyridin-2-yl)-4,5,6,7-tetrahydro-1H-pyrazolo[4,3-c]pyridine-3-carboxamide] is 0.63 log units lower in pEC50: 6.46 for the first, 5.83 for the second. The first is the more potent here.

Compared with `CC(C)n1nc(C(=O)NCc2ccc(NC(=O)N3CCC4(CCN(C)CC4)CC3)c(F)c2)c2c1[C@@H](C)CN(c1ccc(C(=O)N(C)C)cc1)C2` [Example 660, (S)-N-(4-((5-(4-(dimethylcarbamoyl)phenyl)-1-isopropyl-7-methyl-4,5,6,7-tetrahydro-1H-pyrazolo[4,3-c]pyridine-3-carboxamido)methyl)-2-fluorophenyl)-9-methyl-3,9-diazaspiro[5.5]undecane-3-carboxamide], `CC(C)n1nc(C(=O)NCc2ccc(NC(=O)N3CCC4(CCCN(C)C4)CC3)c(F)c2)c2c1[C@@H](C)CN(c1ccc(C(=O)N(C)C)cc1)C2` [Example 644, (S)-N-(4-((5-(4-(dimethylcarbamoyl)phenyl)-1-isopropyl-7-methyl-4,5,6,7-tetrahydro-1H-pyrazolo[4,3-c]pyridine-3-carboxamido)methyl)-2-fluorophenyl)-2-methyl-2,9-diazaspiro[5.5]undecane-9-carboxamide] is 0.60 log units higher in pEC50: 8.40 for the first, 9.00 for the second.

First: CC(=O)N1CCCN(C(=O)c2ccc(N3CCc4c(c(C(=O)NCc5ccc(NC(=O)N(C)C)cc5)nn4C(C)C)C3)nc2)CC1 [Example 200, 5-(5-(4-acetyl-1,4-diazepane-1-carbonyl)pyridin-2-yl)-N-(4-(3,3-dimethylureido)benzyl)-1-isopropyl-4,5,6,7-tetrahydro-1H-pyrazolo[4,3-c]pyridine-3-carboxamide]
Second: CC(C)n1nc(C(=O)NCc2ccc(NC(=O)N(C)C)cc2)c2c1CCN(c1ccc(C(=O)N3CC4(CC(=O)N(C)C4)C3)cn1)C2 [Example 300, N-(4-(3,3-dimethylureido)benzyl)-1-isopropyl-5-(5-(6-methyl-7-oxo-2,6-diazaspiro[3.4]octane-2-carbonyl)pyridin-2-yl)-4,5,6,7-tetrahydro-1H-pyrazolo[4,3-c]pyridine-3-carboxamide]
The pEC50 of the first is 0.59 log units higher: 6.44 for the first, 5.85 for the second. The first is the more potent here.

`CC(C)n1nc(C(=O)NCc2ccc(NC(=O)N3CCN(C)CC3)cc2)c2c1[C@@H](C)CN(c1ccc(-c3nncn3C3CC3)cn1)C2` [Example 655, (S)-5-(5-(4-cyclopropyl-4H-1,2,4-triazol-3-yl)pyridin-2-yl)-1-isopropyl-7-methyl-N-(4-(4-methylpiperazine-1-carboxamido)benzyl)-4,5,6,7-tetrahydro-1H-pyrazolo[4,3-c]pyridine-3-carboxamide] and `Cc1noc(=O)n1-c1ccc(N2Cc3c(C(=O)NCc4ccc(NC(=O)N5CCN(C)CC5)cc4)nn(C(C)C)c3[C@@H](C)C2)cc1` [Example 656, (S)-1-isopropyl-7-methyl-5-(4-(3-methyl-5-oxo-1,2,4-oxadiazol-4(5H)-yl)phenyl)-N-(4-(4-methylpiperazine-1-carboxamido)benzyl)-4,5,6,7-tetrahydro-1H-pyrazolo[4,3-c]pyridine-3-carboxamide] are the same in pEC50: 8.70 for the first, 8.70 for the second.

Compared with `CC(C)n1nc(C(=O)NCc2ccc(NC(=O)N3CCN4CCCC[C@H]4C3)cc2)c2c1[C@@H](C)CN(c1ccc(C(=O)N(C)C)cc1)C2` [Example 737, (S)-N-(4-(((S)-5-(4-(dimethylcarbamoyl)phenyl)-1-isopropyl-7-methyl-4,5,6,7-tetrahydro-1H-pyrazolo[4,3-c]pyridine-3-carboxamido)methyl)phenyl)octahydro-2H-pyrido[1,2-a]pyrazine-2-carboxamide], `CC(C)n1nc(C(=O)NCc2ccc(NC(=O)N3CCC[C@H](N(C)C)C3)cc2)c2c1[C@@H](C)CN(c1ccc(C(=O)N(C)C)cc1)C2` [Example 755, (S)-N-(4-((S)-3-(dimethylamino)piperidine-1-carboxamido)benzyl)-5-(4-(dimethylcarbamoyl)phenyl)-1-isopropyl-7-methyl-4,5,6,7-tetrahydro-1H-pyrazolo[4,3-c]pyridine-3-carboxamide] is 0.30 log units lower in pEC50: 9.00 for the first, 8.70 for the second. The first is the more potent here.

First: CC(C)n1nc(C(=O)NCc2ccc(NC(=O)N(C)C)cc2)c2c1CCN(c1ccc(C(=O)N3CCn4nc(C#N)cc4C3)cn1)C2 [Example 386, 5-(5-(2-cyano-4,5,6,7-tetrahydropyrazolo[1,5-a]pyrazine-5-carbonyl)pyridin-2-yl)-N-(4-(3,3-dimethylureido)benzyl)-1-isopropyl-4,5,6,7-tetrahydro-1H-pyrazolo[4,3-c]pyridine-3-carboxamide]
Second: CC(C)n1nc(C(=O)NCc2ccc(NC(=O)N(C)C)cc2)c2c1CCN(c1ccc(C(=O)N3CCc4ncn(C)c4C3)cn1)C2 [Example 405, N-(4-(3,3-dimethylureido)benzyl)-1-isopropyl-5-(5-(3-methyl-4,5,6,7-tetrahydro-3H-imidazo[4,5-c]pyridine-5-carbonyl)pyridin-2-yl)-4,5,6,7-tetrahydro-1H-pyrazolo[4,3-c]pyridine-3-carboxamide]
The pEC50 of the first is 0.45 log units higher: 7.25 for the first, 6.80 for the second. The first is the more potent here.

`CC(C)n1nc(C(=O)NCc2ccc(NC(=O)N(C)C)cc2)c2c1CCN(c1ccc(C(=O)N3CCc4cnn(C)c4C3)cn1)C2` [Example 371, N-(4-(3,3-dimethylureido)benzyl)-1-isopropyl-5-(5-(1-methyl-4,5,6,7-tetrahydro-1H-pyrazolo[3,4-c]pyridine-6-carbonyl)pyridin-2-yl)-4,5,6,7-tetrahydro-1H-pyrazolo[4,3-c]pyridine-3-carboxamide] and `CC(C)n1nc(C(=O)NCc2ccc(NC(=O)N(C)C)cc2)c2c1CCN(c1ccc(C(=O)N3CCc4ncncc4C3)cn1)C2` [Example 379, N-(4-(3,3-dimethylureido)benzyl)-1-isopropyl-5-(5-(5,6,7,8-tetrahydropyrido[4,3-d]pyrimidine-6-carbonyl)pyridin-2-yl)-4,5,6,7-tetrahydro-1H-pyrazolo[4,3-c]pyridine-3-carboxamide] are within 0.2 log units of each other in pEC50: 7.30 for the first, 7.15 for the second.

Compared with `CC(C)n1nc(C(=O)NCc2ccc(NC(=O)N(C)C)cc2)c2c1[C@@H](C)CN(c1ccc(C(=O)N3Cc4cccnc4C3)cc1)C2` [Example 676, (S)-5-(4-(6,7-dihydro-5H-pyrrolo[3,4-b]pyridine-6-carbonyl)phenyl)-N-(4-(3,3-dimethylureido)benzyl)-1-isopropyl-7-methyl-4,5,6,7-tetrahydro-1H-pyrazolo[4,3-c]pyridine-3-carboxamide], `CC(C)n1nc(C(=O)NCc2ccc(NC(=O)N(C)C)cc2)c2c1CCN(c1ccc(C(=O)N3CC(=O)NCC3(C)C)cn1)C2` [Example 328, 5-(5-(2,2-dimethyl-5-oxopiperazine-1-carbonyl)pyridin-2-yl)-N-(4-(3,3-dimethylureido)benzyl)-1-isopropyl-4,5,6,7-tetrahydro-1H-pyrazolo[4,3-c]pyridine-3-carboxamide] is 2.94 log units lower in pEC50: 9.52 for the first, 6.58 for the second.

Work on `CC(C)n1nc(C(=O)NCc2ccc(NC(=O)N3CCN(C)CC3)cc2)c2c1[C@@H](C)CN(c1ccc3c(c1)CCCN(C)C3=O)C2` [Example 651, (S)-1-isopropyl-7-methyl-5-(2-methyl-1-oxo-2,3,4,5-tetrahydro-1H-benzo[c]azepin-7-yl)-N-(4-(4-methylpiperazine-1-carboxamido)benzyl)-4,5,6,7-tetrahydro-1H-pyrazolo[4,3-c]pyridine-3-carboxamide] yielded a pEC50 of 9.00.
